According to the NIST ThermoML archive (doi:10.1021/je500594z):

Test: xn = mol fraction of the nth substance listed
Conditions: 101 kPa, Liquid; for viscosity: Falling or rolling sphere viscometry; for speed of sound: Sing-around technique in a fixed-path interferometer; for mass density: Vibrating tube method

CCCC[n+]1ccn(C)c1.O=S(=O)([N-]S(=O)(=O)C(F)(F)F)C(F)(F)F + CCO
Conditions	mass density [kg/m3]	speed of sound [m/s]	viscosity [mPa·s]
278.15 K, x1 = 0.049	939.65	1204.6	2.64
278.15 K, x1 = 0.096	1032.42	1204.5	3.8
278.15 K, x1 = 0.194	1162.65	1213.9	7.4
278.15 K, x1 = 0.288	1241.69	1225.4	12.59
278.15 K, x1 = 0.39	1300.98	1237.1	18.82
278.15 K, x1 = 0.484	1340.75	1245.5	26.93
278.15 K, x1 = 0.591	1375.63	1253.5	38
278.15 K, x1 = 0.696	1401.82	1260	52.96
278.15 K, x1 = 0.818	1426.17	1266.3	77.99
278.15 K, x1 = 0.9	1439.65	1269.8	99.43
278.15 K, x1 = 1	1453.69	1273.8	139.82
298.15 K, x1 = 0.049	921.49	1142.4	1.71
298.15 K, x1 = 0.096	1013.65	1146.4	2.35
298.15 K, x1 = 0.194	1143.26	1160.7	4.13
298.15 K, x1 = 0.288	1222.07	1174.6	6.64
298.15 K, x1 = 0.39	1281.27	1188	9.5
298.15 K, x1 = 0.484	1321.04	1197.4	12.92
298.15 K, x1 = 0.591	1355.98	1206.2	17.3
298.15 K, x1 = 0.696	1382.23	1213.2	22.86
298.15 K, x1 = 0.818	1406.65	1219.8	31.21
298.15 K, x1 = 0.9	1420.19	1223.6	38.05
298.15 K, x1 = 1	1434.23	1227.5	51.22
318.15 K, x1 = 0.049	903.02	1082	1.18
318.15 K, x1 = 0.096	994.64	1090	1.57
318.15 K, x1 = 0.194	1123.77	1109.1	2.61
318.15 K, x1 = 0.288	1202.45	1125.5	3.95
318.15 K, x1 = 0.39	1261.65	1140.5	5.62
318.15 K, x1 = 0.484	1301.51	1150.8	7.52
318.15 K, x1 = 0.591	1336.54	1160.7	9.76
318.15 K, x1 = 0.696	1362.91	1168.3	12.42
318.15 K, x1 = 0.818	1387.44	1175.6	16.16
318.15 K, x1 = 0.9	1401.04	1179.7	19.03
318.15 K, x1 = 1	1415.13	1184	24.36
338.15 K, x1 = 0.049	883.95	1022.5	0.85
338.15 K, x1 = 0.096	975.18	1034.5	1.12
338.15 K, x1 = 0.194	1104.04	1058.5	1.79
338.15 K, x1 = 0.288	1182.73	1077.4	2.71
338.15 K, x1 = 0.39	1242.06	1094.2	3.7
338.15 K, x1 = 0.484	1282.08	1105.8	4.86
338.15 K, x1 = 0.591	1317.28	1116.5	6.26
338.15 K, x1 = 0.696	1343.8	1124.9	7.79
338.15 K, x1 = 0.818	1368.47	1133	9.83
338.15 K, x1 = 0.9	1382.15	1137.6	11.28
338.15 K, x1 = 1	1396.35	1142.7	13.94
